Publication PMC6503114, “Application of Antimicrobial Peptides of the Innate Immune System in Combination With Conventional Antibiotics—A Novel Way to Combat Antibiotic Resistance?” (Frontiers in Cellular and Infection Microbiology, 2019)
Marks after values point to notes of the source that are not given here.

Legend:
A. baumannii 7226/16 [1] = experiment: microbe, parasite or virus in culture; type: cell-based; settings: Acinetobacter baumannii; A. baumannii 7226/16, drug-resistant clinical isolate
Method: (§1) Prior to the “checkerboard” synergy test the minimal inhibitory concentrations (MIC) of individual substances were determined using broth microdilution assay. Testing was performed in 60-well polystyrene Terasaki microplates with V-shaped bottom generally according to the guidelines of the European Committee for Antimicrobial Susceptibility Testing with subtle modifications designed for AMP testing (Tossi et al., [1997]; Wiegand et al., [2008]). Cultivation of bacteria was carried out in 2.1% Müller-Hinton broth at 37°C with shaking. Two-fold serial dilutions of peptides, antibiotics and other antimicrobials were made with 10 mM sodium phosphate buffer, pH 7.4, containing 0.1% of BSA. The plates were preliminary incubated with 0.1% BSA for 1 h at 37°C to reduce a non-specific binding of peptides to the plates. After that BSA was removed, and serial dilutions were added into the plate wells in triplicates followed by the same volume of the suspension of bacterial cells in logarithmic phase of growth in concentration of 1 × 10^6 CFU/ml. After the 18 h overnight incubation at 37°C, the MIC value for each compound was determined as its lowest concentration completely inhibiting the visible growth of bacteria. The final results were calculated as median values based on 3–6 independent experiments.

E. coli ESBL 521/17 [2] = experiment: microbe, parasite or virus in culture; type: cell-based; settings: Escherichia coli, ESBL521/17; E. coli ESBL 521/17, drug-resistant clinical isolate; square brackets = twice the maximal tested concentration
Method: as §1

[3] = test system: K. pneumoniae ESBL 344/17; experiment: microbe, parasite or virus in culture; type: cell-based; settings: Klebsiella pneumoniae, ESBL344/17; K. pneumoniae ESBL 344/17, drug-resistant clinical isolate
Method: as §1

P. aeruginosa MDR 522/17 [4] = experiment: microbe, parasite or virus in culture; type: cell-based; settings: Pseudomonas aeruginosa, MDR522/17; P. aeruginosa MDR 522/17, drug-resistant clinical isolate
Method: as §1

S. aureus 1399/17 [5] = experiment: microbe, parasite or virus in culture; type: cell-based; settings: Staphylococcus aureus; S. aureus 1399/17, drug-resistant clinical isolate; read-out: MIC
Method: as §1

E. coli ESBL 521/17 [6] = experiment: Checkerboard titration (FICI); type: cell-based, Escherichia coli
Method: (§2) The combined antimicrobial action of AMPs and other antimicrobial compounds was assessed using checkerboard titration approach under the conditions similar to that of the microdilution assay. According to checkerboard titration template, one component (A) of the combination was diluted along the rows of the plate, while the other (B) was diluted down the columns, thereby creating the variety of mixtures with different concentrations of tested compounds. 2.5 μl of corresponding solutions of the components A and B were added into each well of the plate. Into the first column and the last row the same amount of 10 mM sodium phosphate buffer, pH 7.4, containing 0.1% of BSA was introduced instead of the second component. Thus, all wells contained 5 μl of antimicrobial compounds solutions (solo or in combination). The same volume of bacterial suspension, prepared as described for microdilution assay, was added into each well. The results were recorded after the overnight incubation, visually indicating the presence or absence of the microbial growth in the corresponding wells. Based on the obtained data the isobolograms of combined action were plotted and/or Fractional Inhibitory Concentration Indices (FICI) were calculated. […] Depending on the minimal value of the FICI the combined effect of the combination was classified as antagonism (FICI > 2), independent action (1 < FICI ≤ 2), additivity (0.5 < FICI ≤ 1) or synergy (FICI ≤ 0.5), as is recommended in the literature and due to some drawbacks of the serial dilution method (Hsieh et al., [1993]; Orhan et al., [2005]; Fehri et al., [2007]). FICIs were assessed in 3–6 independent experiments and median values were used to define the nature of interaction.

A. baumannii 7226/16 [7] = experiment: Checkerboard titration (FICI); type: cell-based, Acinetobacter baumannii
Method: as §2

P. aeruginosa MDR 522/17 [8] = experiment: Checkerboard titration (FICI); type: cell-based, Pseudomonas aeruginosa
Method: as §2

[9] = test system: K. pneumoniae ESBL 344/17; experiment: Checkerboard titration (FICI); type: cell-based, Klebsiella pneumoniae
Method: as §2

S. aureus 1399/17 [10] = experiment: Checkerboard titration (FICI); type: cell-based, Staphylococcus aureus
Method: as §2

Human PBMC = experiment: MTT-test
Method: To obtain neutrophils and mononuclear cells, whole heparinized blood was diluted with sterile PBS in a 1:1 ratio and carefully inserted into the sterile polystyrene 50 ml tube upon the 5 ml of the sterile Ficoll-400 (Pharmacia, Sweden) with a density of 1.077. The tube was centrifuged at 600 g and 4°C for 40 min. After separation, the mononuclear “ring” located between the blood plasma and Ficoll was collected with a Pasteur pipette, transferred to another tube, and washed twice with 10 ml of sterile PBS by centrifugation for 10 min at 300 g and 4°C.
(§3) We calculated Fractional Effective Concentration Index (FECI), which could be seen as a particular case of the interaction index (I) proposed by Berenbaum ([1977]) or of the similar combination index (CI) proposed by Chou and Talalay ([1983]), according to the equation below: […]
(§4) Here, [MEC A] and [MEC B] are the minimum effective concentrations (MEC) of substances A and B, when they are used alone. […] [A] and [B] are respective concentrations of substances A and B in their combination, where the same statistically significant difference is detected. A non-parametric Mann-Whitney U-test (p < 0.05 or p < 0.01) was used for the mentioned statistical comparison.
(§5) We have chosen the same intervals as that of FICI to determine synergy, additivity, independent action, and antagonism based on the minimal FECI values. However, in case of cytotoxic or hemolytic effect we were interested mainly in testing the possibility of additive or synergistic interaction itself, and not in assessing the exact magnitude of such interaction. Thus, in contrast to the “checkerboard titration” method used for combined antimicrobial activity investigation, studying the combined cytotoxic effect, we considered only two combinations of concentrations for the substances A and B in the mixture: • (½ MEC A + ½ MEC B), which, if found effective, provides the FECI value of 1 (the threshold value for additivity); • (¼ MEC A + ¼ MEC B), which, if found effective, provides the FECI value of 0.5 (the threshold value for synergetic interaction).
(§6) When action on tumor cells was tested in combination with antitumor antibiotic the lower concentrations up to ( 1/16 MEC A + 1/16 MEC B) as in checkerboard titration were additionally examined to assess the magnitude of synergistic effect more precisely. The final conclusion was made based on the three independent experiments.
(§7) Standard MTT-test (Mosmann, [1983]) was used for the examination of the cytotoxic activity of antimicrobial compounds and their combinations toward varied eukaryotic cells. Briefly, cell suspensions in RPMI-1640 prepared as described in Eukaryotic Cells were dispensed into the 96-well microplates (2 × 10^5 cells/well). Then, serial dilutions of AMPs, or other antibiotic compounds, or their mixtures in RPMI-1640 were added. In positive controls (100% cell survival) the according volume of RPMI-1640 without test substances was added instead. The final volume in each well was 100 μl. Negative controls (0% cell survival) were made with 100 μl of the sterile RPMI-1640. The plates were incubated at 37°C under 5% CO2 for 24 h. Four hours before the end of incubation, 10 μl of metabolic marker MTT−3-(4,5-dimethylthiazol-2-yl)-2,5-diphenyltetrazolium bromide (5 mg/ml, diluted in PBS) was added to each well. Incubation was stopped by adding 90 μl of isopropanol containing 0.04 M HCl. Content of the wells was thoroughly mixed, so that the formazan crystals, formed in case of the reduction of MTT in presence of actively metabolizing cells, were fully dissolved. The optical density of the samples was evaluated at 540 nm, subtracting the background absorbance at 690 nm, by SpectraMax 250 Spectrophotometer (Molecular Devices, USA). The experiments were repeated at least three times. In each experiment test samples were made in triplicates and control samples were made in hexaplicates.

Human neutrophils = test system: Human neutrophils
Method: The pellet formed under the Ficoll-400 layer after separation contained both neutrophils and erythrocytes. It was also transferred into a separate tube, where the red blood cells were lysed with 0.83% ammonium chloride solution, which was added in a ratio of 1:4. After the thorough mixing, the suspension was incubated for 10 min at room temperature, and then centrifuged for 10 min at 300 g and 4°C. The resulting precipitate containing neutrophils was washed twice with the sterile PBS.
as §3, §4, §5, §6, §7

[11] = test system: Murine peritoneal macrophages; experiment: MTT-test
Method: (§8) Before the cells extraction, mice were sacrificed by cervical dislocation in accordance with the supplement to the Directive 86/609/EEC and its update Directive 2010/63/EU addressing the recommendations for euthanasia of experimental animals (Close et al., [1996]). To obtain peritoneal macrophages, healthy mice were used. The abdominal cavity of each animal was washed with 3 ml of sterile PBS using a Pasteur pipette. The culture of EAC cells was kindly provided by Dr. E.P. Kiseleva (Immunology Department of the Institute of Experimental Medicine, Saint Petersburg, Russia). On the tenth day after the intraperitoneal tumor inoculation, 0.5–1.5 ml of ascitic fluid containing EAC cells was obtained from the abdominal cavity of the animals. Murine cells (normal or tumor) were washed twice with 10 ml of sterile PBS and resuspended in RPMI-1640 medium as described above for human neutrophils and PBMC.
as §3, §4, §5, §6
as §7, with “dissolved.” for “dissolved. The optical density of the samples was evaluated at 540 nm, subtracting the background absorbance at 690 nm, by SpectraMax 250 Spectrophotometer (Molecular Devices, USA). The experiments were repeated at least three times. In each experiment test samples were made in triplicates and control samples were made in hexaplicates.”

K562 = test system: K562
Method: (§9) The human erythromyeloid leukemia cell line K562 was obtained from the collection of the Institute of Cytology RAS (Saint Petersburg, Russia) and cultured in RPMI-1640 medium containing gentamicin (100 μg/ml) and 10% of fetal bovine serum at 37°C, 5% CO2. […] Drug resistance was maintained by monthly selection with the antibiotic (2 μg/ml in the culturing medium). Doxorubicin was removed from the medium 3 days prior to beginning any experiments. Before the testing K562 cells were washed twice with PBS and resuspended in RPMI-1640 in the same way as the other cell types.
as §3, §4, §5, §6
as §7, with “dissolved.” for “dissolved. The optical density of the samples was evaluated at 540 nm, subtracting the background absorbance at 690 nm, by SpectraMax 250 Spectrophotometer (Molecular Devices, USA). The experiments were repeated at least three times. In each experiment test samples were made in triplicates and control samples were made in hexaplicates.”

[12] = test system: doxorubicin-resistant K562 tumor cells
Method: as §9, §3, §4, §5, §6
as §7, with “dissolved.” for “dissolved. The optical density of the samples was evaluated at 540 nm, subtracting the background absorbance at 690 nm, by SpectraMax 250 Spectrophotometer (Molecular Devices, USA). The experiments were repeated at least three times. In each experiment test samples were made in triplicates and control samples were made in hexaplicates.”

Murine EAC = experiment: MTT-test; type: cell-based, mice; settings: Murine EAC tumor cells, 24 h
Method: as §8, §3, §4, §5, §6
as §7, with “dissolved.” for “dissolved. The optical density of the samples was evaluated at 540 nm, subtracting the background absorbance at 690 nm, by SpectraMax 250 Spectrophotometer (Molecular Devices, USA). The experiments were repeated at least three times. In each experiment test samples were made in triplicates and control samples were made in hexaplicates.”

[13] = antibiotic in combination with ChBac3.4
[14] = antibiotic in combination with PG-1

Structure (SMILES) | MIC (A. baumannii 7226/16 [1]) | MIC (E. coli ESBL 521/17 [2]) | MIC [3] | MIC (P. aeruginosa MDR 522/17 [4]) | MIC (S. aureus 1399/17 [5]) | Minimal FICI (E. coli ESBL 521/17 [6]; [13]) | Minimal FICI (E. coli ESBL 521/17 [6]; [14]) | Minimal FICI (A. baumannii 7226/16 [7]; [13]) | Minimal FICI (A. baumannii 7226/16 [7]; [14]) | Minimal FICI (P. aeruginosa MDR 522/17 [8]; [13]) | Minimal FICI (P. aeruginosa MDR 522/17 [8]; [14]) | Minimal FICI [9, 13] | Minimal FICI [9, 14] | Minimal FICI (S. aureus 1399/17 [10]; [13]) | Minimal FICI (S. aureus 1399/17 [10]; [14]) | further results
NCC[C@H](O)C(=O)N[C@@H]1C[C@H](N)[C@@H](O[C@H]2O[C@H](CN)[C@@H](O)[C@H](O)[C@H]2O)[C@H](O)[C@H]1O[C@H]1O[C@H](CO)[C@@H](O)[C@H](N)[C@H]1O [Amikacin] | 6.25 µM | 1 µM | 0.25 µM | 1 µM | > 50 µM | 0.62 | 0.38 | 0.5^* | 0.38^* | 0.5 | 0.5 | 0.38 | 0.31 | 0.125^* | 1.0 | –
CC[C@H]1OC(=O)[C@H](C)[C@@H](O[C@H]2C[C@@](C)(OC)[C@@H](O)[C@H](C)O2)[C@H](C)[C@@H](O[C@@H]2O[C@H](C)C[C@H](N(C)C)[C@H]2O)[C@](C)(O)C[C@@H](C)C(=O)[C@H](C)[C@@H](O)[C@]1(C)O [Erythromycin] | > 50 µM | > 50 µM | 50 µM | > 50 µM | > 50 µM | 0.38^* | 0.62 | 0.75 | 1.12 | 0.38^* | 0.5^* | 0.25^* | 0.25^* | 0.5^* | 0.75 | –
CC(C)C[C@H](NC(=O)[C@H](CCCNC(=N)N)NC(=O)CNC(=O)CNC(=O)[C@@H](N)CCCNC(=N)N)C(=O)N[C@H]1CSSC[C@@H](C(=O)N[C@H](C(=O)NCC(=O)N[C@@H](CCCNC(=N)N)C(N)=O)C(C)C)NC(=O)[C@H](C(C)C)NC(=O)[C@@H]2CSSC[C@H](NC(=O)[C@H](Cc3ccc(O)cc3)NC1=O)C(=O)N[C@@H](CCCNC(=N)N)C(=O)N[C@@H](CCCNC(=N)N)C(=O)N[C@@H](CCCNC(=N)N)C(=O)N[C@@H](Cc1ccccc1)C(=O)N2 [PG-1, protegrin 1] | – | – | – | – | – | – | – | – | – | – | – | – | – | – | – | MEC of cytotoxic action (Human PBMC): 5.0 µM; MEC of cytotoxic action (Human neutrophils): 2.5 µM; MEC of cytotoxic action [11]: 2.5 µM; minimal FECI (combined cytotoxic action) (K562): 0.25; MEC of cytotoxic action (K562; K562 tumor cells (doxorubicin-sensitive), MTT, 24 h): 1.25 µM; minimal FECI (combined cytotoxic action) [12]: 0.38; MEC ([12]; doxorubicin-resistant K562 cell line): 5.0 µM; enhancement in MEC values comparing susceptible and resistant cell lines ([12]; doxorubicin-resistant vs susceptible K562): 4 times; MEC of cytotoxic action (Murine EAC): 1.25 µM
